Measurements from patent US20250109127A1, “METHODS OF USE OF PHENOXYPROPYLAMINE COMPOUNDS TO TREAT DEPRESSION” (Minerva Neurosciences, Inc., priority 2013, published 2025).
Where a name gives a salt, the structure may show the parent alone.

System: DOPAC release in the rat prefrontal cortex
Experiment: Microdialysis: DOPAC release in prefrontal cortex after I.P. administration
Format: in vivo
Conditions: for DOPAC release, MEAN: 3 mg/kg IP; for DOPAC release, MEAN / DOPAC (% of respective basal) MEAN: n = 8
Experimental: The aim of the study was to evaluate, using microdialysis, the effects of an intraperitoneal (I.P.) administration in rats of three different doses of SON-117 on dopamine and its metabolites, serotonin and its metabolite (5-HIAA), and norepinephrine levels in prefrontal cortex.
Thirty-two adult male Wistar rats were used for the whole study (4 groups of eight animals planned for the study, Table 1).
Surgery was performed on rats weighing about 300 g at the beginning of the experiments. Rats were anaesthetized with Ketamine (50 mg/kg) & Xylazine (15 mg/kg) by intramuscular administration. The animals were placed in a stereotaxic apparatus in the flat-skull position at a constant setting of −3.3 mm between ear bars and the incisor bar. The animals were treated with a local anesthesic (xylocaine 1%, Astra Zeneca) and an analgesic (Temgesic, from Schering Plough, 0.05 mg/kg, s.c.). A rostrocaudal midline incision was made with a lancet to expose the dorsal skull surface. The “stereotaxic zero” was defined by the Bregma in accordance with Paxinos and Watson's atlas (1986). A hole was drilled in the skull with a drill and the meninges were pierced with a sterile needle to implant a CMA12 guide cannula which later received the dialysis probe.
Coordinates used for implanting guide cannula in prefrontal cortex from Bregma were anteroposterior 3.7 mm, mediolateral 0.8 mm, and dorsoventral −2 mm (top of the probe was at −5 mm). The guide cannula was fixed to the skull with two stainless steel screws (1.88 mm outside diameter) anchored. An application of dental cement was added. A plastic collar allowed each animal to be tethered to a Swivel assembly of the CMA 120 awake animal system. Following surgery, rats were kept in individual cages and allowed to recover for a minimum of 3-5 days before the experimentation. The rats were handled and put in plastic bowl for 10 min at least every day to habituate the animals to their new environment for the dialysis. An I.P. administration with saline was also performed every day.
Dialysis probes (CMA12/3 mm, membrane, 20 kD cut-off, Carnegie Medicine, Stockholm, Sweden), were carefully washed before inserting into the guide cannula. The wash was performed with the artificial cerebrospinal fluid (aCSF) medium (NaCl 147 mM, KCl 2.7 mM, CaCl2 1.2 mM, MgCl2 0.85 mM) at room temperature. The dialysis system was then equilibrated at 20° C. at a perfusion rate of 1 μl/min with a Carnegie pump (CMA100). All catheters (FEP tubing, internal volume of 1.2 μl/10 cm, and tubing adaptors) used for microdialysis were treated in the same conditions.
The probes duly prepared were inserted into the guide cannula and the CMA120 Swivel assembly secured to the animal using a plastic collar. Flow through the dialysis probe with aCSF was maintained at a rate of 1 μl/min during the whole experimentation. The first four fractions (corresponding to 2 hours) were discarded to avoid the effects of parenchymal disturbance and to ensure that an approximate steady-state level was reached. Fractions were then collected over a period of 8.5 h during which time the animals remained quiet. The dialysates were automatically collected with an autosampler (microfraction collector CMA 140, Carnegie Medicin) and stored at −80° C. until analysis. […] Perfusion was then maintained for 7 hours with aCSF. The dialysates (30 μl) were collected into 300 μl vials, transferred into dry ice and then kept frozen (−80° C.) until analysis. Frozen samples were shipped to a partner for analysis. At the end of the microdialysis study, a PBS with colored ink was perfused through the probe in order to visualize the dialyzed area.
Catecholamine assay: Concentrations of dopamine, DOPAC, HVA, 5-HIAA, 5-HT, and norepinephrin were determined for each sample by HPLC coupled with electrochemical detection.

Structure (SMILES): Cc1nnc(-c2cc3c(OC[C@@H](O)CN4CCC(c5ccc(Cl)c(Cl)c5)CC4)cccc3o2)o1 [SON-117, (S)-1-(4-(3,4-dichlorophenyl)piperidino)-3-(2-(5-methyl-1,3,4-oxadiazol-2-yl)benzo(b)furan-4-yloxy)-2-propanol hydrochloride]
- DOPAC release, MEAN (T-1 h 30-T-1 h (before administration)): 101.39 % of respective basal
- DOPAC release, MEAN (T-1 h-T-30 min (before administration)): 103.75 % of respective basal
- DOPAC levels, change (not statistically significant) (SON-117 0.1 mg/kg I.P., from 1.5 h to 2.5 h and from 4.5 h to 7 h): tended to induce a slight increase
- release of DOPAC, trend (SON-117 0.1 mg/kg, at 2 h and from 4.5 h to 7 h): trend for an increased release
- DOPAC dialysate levels vs mean pre-administration value (SON-117 0.3 mg/kg IP): no statistically significant differences
- DOPAC dialysate levels vs mean pre-administration value (SON-117 3 mg/kg IP): no statistically significant differences
- DOPAC, difference to the citalopram group (two-way ANOVA) (SON-117 at the three doses tested, in function of time): no significant differences
- DOPAC (% of respective basal) MEAN (SON-117 group 0.1 mg/kg I.P., T0-T30 min): 81.81 % of respective basal
- DOPAC (% of respective basal) MEAN (SON-117 group 0.1 mg/kg I.P., T30-T1 h): 104.52 % of respective basal
- DOPAC (% of respective basal) MEAN (SON-117 group 0.1 mg/kg I.P., T1 h 30-T2 h): 144.57 % of respective basal
- DOPAC (% of respective basal) MEAN (SON-117 group 0.1 mg/kg I.P., T1 h-T1 h 30): 112.3 % of respective basal
- DOPAC (% of respective basal) MEAN (SON-117 group 0.1 mg/kg I.P., T2 h 30-T3 h): 94.20 % of respective basal
- DOPAC (% of respective basal) MEAN (SON-117 group 0.1 mg/kg I.P., T2 h-T2 h 30): 102.15 % of respective basal
- DOPAC (% of respective basal) MEAN (SON-117 group 0.1 mg/kg I.P., T3 h 30-T4 h): 96.09 % of respective basal
- DOPAC (% of respective basal) MEAN (SON-117 group 0.1 mg/kg I.P., T3 h-T3 h 30): 90.94 % of respective basal
- DOPAC (% of respective basal) MEAN (SON-117 group 0.1 mg/kg I.P., T4 h 30-T5 h): 120.32 % of respective basal
- DOPAC (% of respective basal) MEAN (SON-117 group 0.1 mg/kg I.P., T4 h-T4 h 30): 142.52 % of respective basal
- DOPAC (% of respective basal) MEAN (SON-117 group 0.1 mg/kg I.P., T5 h 30-T6 h): 122.76 % of respective basal
- DOPAC (% of respective basal) MEAN (SON-117 group 0.1 mg/kg I.P., T5 h-T5 h 30): 129.53 % of respective basal
- DOPAC (% of respective basal) MEAN (SON-117 group 0.1 mg/kg I.P., T6 h 30-T7 h): 137.94 % of respective basal
- DOPAC (% of respective basal) MEAN (SON-117 group 0.1 mg/kg I.P., T6 h-T6 h 30): 127.81 % of respective basal
- DOPAC (% of respective basal) MEAN (SON-117 group 0.1 mg/kg I.P., T-30 min-T0 (before administration)): 90.82 % of respective basal
- DOPAC (% of respective basal) MEAN (SON-117 group 0.1 mg/kg I.P., T-1 h 30-T-1 h (before administration)): 109.18 % of respective basal
- DOPAC (% of respective basal) MEAN (SON-117 group 0.1 mg/kg I.P., T-1 h-T-30 min (before administration)): 100.52 % of respective basal
- DOPAC (% of respective basal) MEAN (SON-117 group 0.3 mg/kg I.P., T0-T30 min): 86.10 % of respective basal
- DOPAC (% of respective basal) MEAN (SON-117 group 0.3 mg/kg I.P., T30-T1 h): 84.32 % of respective basal
- DOPAC (% of respective basal) MEAN (SON-117 group 0.3 mg/kg I.P., T1 h 30-T2 h): 102.17 % of respective basal
- DOPAC (% of respective basal) MEAN (SON-117 group 0.3 mg/kg I.P., T1 h-T1 h 30): 93.91 % of respective basal
- DOPAC (% of respective basal) MEAN (SON-117 group 0.3 mg/kg I.P., T2 h 30-T3 h): 83.76 % of respective basal
- DOPAC (% of respective basal) MEAN (SON-117 group 0.3 mg/kg I.P., T2 h-T2 h 30): 81.99 % of respective basal
- DOPAC (% of respective basal) MEAN (SON-117 group 0.3 mg/kg I.P., T3 h 30-T4 h): 94.46 % of respective basal
- DOPAC (% of respective basal) MEAN (SON-117 group 0.3 mg/kg I.P., T3 h-T3 h 30): 83.66 % of respective basal
- DOPAC (% of respective basal) MEAN (SON-117 group 0.3 mg/kg I.P., T4 h 30-T5 h): 107.30 % of respective basal
- DOPAC (% of respective basal) MEAN (SON-117 group 0.3 mg/kg I.P., T4 h-T4 h 30): 94.25 % of respective basal
- DOPAC (% of respective basal) MEAN (SON-117 group 0.3 mg/kg I.P., T5 h 30-T6 h): 88.68 % of respective basal
- DOPAC (% of respective basal) MEAN (SON-117 group 0.3 mg/kg I.P., T5 h-T5 h 30): 79.90 % of respective basal
- DOPAC (% of respective basal) MEAN (SON-117 group 0.3 mg/kg I.P., T6 h 30-T7 h): 96.87 % of respective basal
- DOPAC (% of respective basal) MEAN (SON-117 group 0.3 mg/kg I.P., T6 h-T6 h 30): 97.32 % of respective basal
- DOPAC (% of respective basal) MEAN (SON-117 group 0.3 mg/kg I.P., T-30 min-T0 (before administration)): 92.84 % of respective basal
- DOPAC (% of respective basal) MEAN (SON-117 group 0.3 mg/kg I.P., T-1 h 30-T-1 h (before administration)): 104.24 % of respective basal
- DOPAC (% of respective basal) MEAN (SON-117 group 0.3 mg/kg I.P., T-1 h-T-30 min (before administration)): 102.91 % of respective basal
